The text below walks through data of US4330552A, “Antiinflammatory 4,5-diaryl-2-arylthioimidazoles” (E. I. Du Pont de Nemours and Company, priority 1980, dated 1982).

The test system of the test is adjuvant-induced arthritis in rats. Nature of the test: Established Adjuvant-Induced Arthritis in Rats (paw volume reduction). The test is classed as in vivo, Lewis (Wistar) male rats. The following applies: oral gavage once daily for 7 days (days 14-20), paw volume on day 21; for ED50: Rattus norvegicus, estimated from dose-response regression lines by inspection, read-out: Adjuvant Arthritis ED50 (50% decrease from control paw volume).

With `COc1ccc(-c2nc(Sc3ccccc3)[nH]c2-c2ccc(OC)cc2)cc1` [Example 2], the “percent paw volume reduction at the dose indicated” value (shortened to “percent paw volume reduction”) (25 mg/kg) came to 32%, the “percent paw volume reduction” value (50 mg/kg) turned out to be 28% and the “percent paw volume reduction” value (100 mg/kg) is recorded as 32%. Regarding `COc1ccc(-c2nc(Sc3ccc(F)cc3)[nH]c2-c2ccc(OC)cc2)cc1` [Example 3], for the setting “25 mg/kg”, the “percent paw volume reduction” value is 35%. As usually defined, the ED50 is the dose that gives a 50% effect, or the effect in half of the subjects. For the compound `COc1ccc(-c2nc(S(=O)(=O)c3ccccc3)[nH]c2-c2ccc(OC)cc2)cc1` [Example 6], the 50% effective dose (ED50) was 58 mg/kg. As to `COc1ccc(-c2nc(S(=O)(=O)c3ccc(F)cc3)[nH]c2-c2ccc(OC)cc2)cc1` [Example 7], the “percent paw volume reduction” value (27 mg/kg) worked out at 0%. Take `COc1ccc(-c2nc(S(=O)(=O)c3ccc(Cl)cc3)[nH]c2-c2ccc(OC)cc2)cc1` [Example 5, 4,5-Bis(4-methoxyphenyl)-2-(4-chlorophenylsulfonyl)-1H-imidazole]: the “percent paw volume reduction” value (25 mg/kg) is reported as 31%. Turning to `COc1ccc(Sc2nc(-c3ccc(OC)cc3)c(-c3ccc(OC)cc3)[nH]2)cc1` [Example 4], the ED50 was 13 mg/kg.

With `COc1ccc(-c2nc(S(=O)(=O)c3ccc(OC)cc3)[nH]c2-c2ccc(OC)cc2)cc1` [Example 8], for the setting “25 mg/kg”, the “percent paw volume reduction” value was 16%. For the compound `COc1ccc(-c2nc(Sc3ccc(Cl)cc3)[nH]c2-c2ccc(OC)cc2)cc1` [Example 1, 4,5-Bis(4-methoxyphenyl)-2-(4-chlorophenylthio)-1H-imidazole], the median effective dose (ED50) was 10 mg/kg.
